Series [1] relates to ERAP1. Put plainly: 40 ng of ERAP1 in 20 mM Tris pH 8 buffer containing 100 mM NaCl. Conditions: human, 37°C, up to 1 hr.
Series [2] relates to ERAP1 (recombinant, Hi5 insect cells). Nature of the series: purified recombinant ERAP1 in 20 mM Tris pH 8, 100 mM NaCl. Conditions: human, 37°C, up to 1 hr.
Series [3] has as its system ERAP1. Put plainly: 40 ng ERAP1. Conditions: human, 37°C, up to 1 hr.
Series [4] has as its system ERAP1. Put plainly: 7.8 nM of ERAP1. The following applies: human, 37°C, up to 1 hr.
The subject of series [5] is ERAP1. Put plainly: 800 nM ERAP1. Conditions: human, 37°C, up to 1 hr.
Series [6] concerns ERAP1. Nature of the series: ERAP1, trimming rate measurements (pmol/µg ERAP1×sec). Conditions: human.
The test system of series [7] is ERAP1. Put plainly: 1 nM ERAP1. Conditions: human, 37°C, up to 1 hr.
In series [8] the test system is ERAP1. Put plainly: 15.6 nM of ERAP1. The following applies: human, 37°C, up to 1 hr.
The subject of series [9] is ERAP1. Put plainly: purified recombinant ERAP1 (alanine scan). Conditions: human.
For the next series, the target named is T1, human recombinant ERAP1 (Homo sapiens, UniProt Q9NZ08).
T1 construct: we over-expressed human recombinant full-length ERAP1 in insect cell suspension culture; hexa-His (C); myc; made in house; host or cells: Hi5 insect cells (baculovirus; virus made in SF9 cells)
T1 sequence (Q9NZ08 1-948 isoform Q9NZ08-2): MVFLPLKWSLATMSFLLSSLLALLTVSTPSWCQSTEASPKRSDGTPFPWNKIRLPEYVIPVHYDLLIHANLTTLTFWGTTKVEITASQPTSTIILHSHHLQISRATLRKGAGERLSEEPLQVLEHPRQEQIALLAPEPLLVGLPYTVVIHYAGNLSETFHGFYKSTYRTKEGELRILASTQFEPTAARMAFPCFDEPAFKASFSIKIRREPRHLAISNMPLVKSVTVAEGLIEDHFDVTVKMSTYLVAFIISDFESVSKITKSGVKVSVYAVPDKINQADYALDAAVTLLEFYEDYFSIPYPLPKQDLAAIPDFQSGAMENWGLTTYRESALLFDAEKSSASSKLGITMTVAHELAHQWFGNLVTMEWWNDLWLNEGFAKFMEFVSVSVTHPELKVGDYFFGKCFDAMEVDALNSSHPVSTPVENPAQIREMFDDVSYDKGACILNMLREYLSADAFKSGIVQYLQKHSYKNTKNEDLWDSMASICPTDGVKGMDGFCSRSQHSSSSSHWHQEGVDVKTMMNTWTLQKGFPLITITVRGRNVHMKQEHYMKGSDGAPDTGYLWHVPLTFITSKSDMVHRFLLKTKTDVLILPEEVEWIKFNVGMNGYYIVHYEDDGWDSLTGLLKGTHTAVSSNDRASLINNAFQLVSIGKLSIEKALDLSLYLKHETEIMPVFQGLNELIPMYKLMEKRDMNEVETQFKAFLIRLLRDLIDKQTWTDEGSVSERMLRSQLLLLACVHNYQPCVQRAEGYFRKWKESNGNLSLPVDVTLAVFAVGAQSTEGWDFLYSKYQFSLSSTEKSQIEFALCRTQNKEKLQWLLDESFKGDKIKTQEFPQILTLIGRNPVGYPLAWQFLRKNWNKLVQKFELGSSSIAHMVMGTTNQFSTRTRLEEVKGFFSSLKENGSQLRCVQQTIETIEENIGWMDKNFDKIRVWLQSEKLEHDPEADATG
Nature of the series: N-terminus trimming of model peptides by ERAP1, products analysed by reverse-phase HPLC. It is filed as biochemical. The following applies: alanine scan, 40 ng of ERAP1, three separate experiments in parallel; RP-HPLC; Figure 3A. Here is the method: Human recombinant ERAP1 was produced in Hi5 insect cells grown in Excel405™ serum free medium, after infection by baculovirus carrying the ERAP1 gene with a C-terminal hexa-His tag. The enzyme was secreted into the cell medium, which was harvested by centrifugation (3000 rpm, 30 min, 4°C, GSA rotor) in a Sorvall centrifuge. The cell supernatant was subjected to 3 rounds of buffer exchange (10 fold dilution each time) using a large scale diafiltration apparatus versus 5 mM phosphate buffer at pH 7 containing 100 mM NaCl. The supernatant was then concentrated and its composition adjusted to 50 mM phosphate (pH 8), 300 mM NaCl, 10 mM imidazole and immediately loaded onto a HiTrap™ chelating column (Qiagen) that was pre-loaded with Ni(II)SO4. The column was washed with the same buffer containing 20 mM imidazole and the protein was eluted using a 20 mM to 150 mM imidazole gradient. […]
The digestion of model peptides by ERAP1 was followed by analysis of peptide products of the digestion on a reverse phase C18 column (Higgins Analytical 0546-C183). […] The elution was done with a 5% to 40% acetonitrile gradient at 1 ml/min, while following the absorbance at 214 nm or 280 nm. […]
Figure 1 Typical chromatogram of peptide product analysis after ERAP1 digestion. Samples were analyzed by HPLC reverse phase chromatography. […]

No end group written: not given here.

For the sequence AYWANATRSG, the cleaved bond entry with ERAP1 [1] was “A-Y”.

Take FYWANATRSG: the cleaved bond result in the series on ERAP1 [1] was “F-Y, 1 hr”; in [2] it was “F-Y, 1 hr”.

As for LAAALSIINFEKL, the not cleaved result in the series with ERAP1 [3] and in the series with ERAP1 [1] was “resistant to any trimming after 1 hr” in each case.

For the sequence LAWANATRSG, in the series with ERAP1 [1], the cleaved bond result is recorded as “L-A”.

LSIINFEAL: the cleaved bond entry in the series on ERAP1 [4] was “L-S, 1 hr”.

On to LSIINFEKL, for which the cleaved bond result in the series on ERAP1 [4] was “L-S”; in the series with ERAP1 [1], “L-S, 1 hr”.

With LSIINFEKLAAAL, the cleaved bond result with ERAP1 [1] is “L-S, 1 hr”.

With LTAEEAVET, the not cleaved result in the series on ERAP1 [5] was “completely resistant to trimming after 1 hr with 800 nM ERAP1”. Besides, the cleaved bond result in the series on ERAP1 [6] is “L-T”.

On to LVAFKARKF, for which the cleaved bond result in the series with ERAP1 [7] was “L-V, 1 hr”.

For the sequence LVNVDYSAL, in the series with ERAP1 [8], the cleaved bond entry is “L-V, 1 hr”.

For the sequence LVNVDYSKL, the cleaved bond entry in the series on ERAP1 [8] is “L-V, 1 hr”.

Consider LYAANATRSG, for which the cleaved bond entry in the series with ERAP1 [1] is on record as “L-Y”.

As to LYWAAATRSG, in the series with ERAP1 [1], the cleaved bond result is recorded as “L-Y”.

For LYWANAARSG, in the series with ERAP1 [1], the cleaved bond result is given as “L-Y”.

With LYWANATASG, in the series on ERAP1 [9], the not cleaved result was “Less than 1% trimming”. Further, in the series on ERAP1 [6], the cleaved bond result is given as “L-Y”.

Turning to LYWANATASG [LYWANATASG], at human recombinant ERAP1, the “percent N-terminus trimming detected” value was “Less than 1%”.

On to LYWANATRAG, for which the cleaved bond result with ERAP1 [1] is recorded as “L-Y”.

For the sequence LYWANATRSA, the cleaved bond entry with ERAP1 [1] is on record as “L-Y”.

For LYWANATRSG, the cleaved bond result in the series on ERAP1 [9] and in the series with ERAP1 [1] was “L-Y” throughout.

For MYWANATRSG, in the series with ERAP1 [1], the cleaved bond result is on record as “M-Y”.
